Laboratory results: patent US10654884B2 (Vitae Pharmaceuticals, Inc., priority 2014, dated 2020)

Columns and labels:
human CD73 = target: T1, human CD73 (Homo sapiens, UniProt P21589); assay: Inhibition of 5′-Nucleotidase Activity of CD73 (Assay 1); format: biochemical; conditions: human CD73 4 ng/ml, 50 μM CMP, 20 min at RT, malachite green readout; read-out: Assay 1: IC50, inhibition of 5′-nucleotidase activity of CD73
T1 construct: purchased R&D Systems 5795-EN-010
T1 sequence (P21589 27-549): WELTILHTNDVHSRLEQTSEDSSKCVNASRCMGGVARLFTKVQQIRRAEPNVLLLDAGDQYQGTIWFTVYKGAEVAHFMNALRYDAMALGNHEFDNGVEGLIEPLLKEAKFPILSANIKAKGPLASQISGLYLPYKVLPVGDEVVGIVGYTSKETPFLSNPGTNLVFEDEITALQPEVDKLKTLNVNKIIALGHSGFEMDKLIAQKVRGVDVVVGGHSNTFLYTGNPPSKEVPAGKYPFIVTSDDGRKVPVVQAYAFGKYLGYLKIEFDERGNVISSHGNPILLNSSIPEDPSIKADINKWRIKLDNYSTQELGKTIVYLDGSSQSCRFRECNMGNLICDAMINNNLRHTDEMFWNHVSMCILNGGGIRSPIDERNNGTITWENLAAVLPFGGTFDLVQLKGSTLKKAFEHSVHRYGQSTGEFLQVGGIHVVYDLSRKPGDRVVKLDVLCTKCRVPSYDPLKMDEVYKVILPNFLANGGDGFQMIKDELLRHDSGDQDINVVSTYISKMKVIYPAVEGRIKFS
Outline: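 Human CD73 (4 ng/ml final) was incubated with 50 μM CMP in 25 mM Tris-HCl pH 7.4, 0.005% Brij-35 for 20 min at RT. Reactions were stopped with malachite green reagent and absorbance was read at 620 nm. IC50 came from a 4-parameter logistic fit.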

[1] = target: T2, CD73 on U138 neuroglioma cells (Homo sapiens, UniProt P21589); assay: Inhibition of Ecto-5′-Nucleotidase Activity in U138 Neuroglioma Cells (Assay 2); format: cell-based; conditions: 50 μM CMP, 2 hr at 37° C., malachite green readout, read-out: Assay 2: IC50, inhibition of ecto-5′-nucleotidase activity in U138 neuroglioma cells
T2 construct: U138 neuroglioma cells, which express CD73 on their surface; endogenous in cells; host or cells: U138 neuroglioma cells (ATCC)
T2 sequence (P21589 27-549): T1 sequence (P21589 27-549)
Outline: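 Whole-cell CD73 activity in U138 human neuroglioma cells seeded the day before, washed free of phosphate, then given test compound dilutions with 50 μM CMP in HEPES-buffered saline, pH 7.4, DMSO ≤0.1%. Incubated 2 hr at 37° C; released inorganic phosphate in supernatant measured by malachite green; IC50 by nonlinear regression.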

SMILES | IC50 (human CD73) | IC50 [1]
CC(C)(C)OC(=O)[C@H](OC[C@H]1O[C@@H](n2cnc3c(N)nc(Cl)nc32)[C@H](O)[C@@H]1O)P(=O)(O)O (single isomer, unassigned) [Example 15] | < 100 nM | < 100 nM
CCOC(=O)[C@H](OC[C@H]1C[C@@H](n2cnc3cccc(C#N)c3c2=O)[C@H](O)[C@@H]1O)P(=O)(O)O [Example 73, ((R)-1-(((1R,2R,3S,4R)-4-(5-cyano-4-oxoquinazolin-3(4H)-yl)-2,3-dihydroxycyclopentyl)methoxy)-2-ethoxy-2-oxoethyl)phosphonic Acid] | < 100 nM | 100 to 1000 nM
CCOC(=O)[C@H](OC[C@H]1O[C@@H](n2cnc3c(NC4CC4)nc(Cl)nc32)[C@H](O)[C@@H]1O)P(=O)(O)O (single isomer, unassigned) [Example 22] | < 100 nM | < 100 nM
CCOC(=O)[C@](CC(=O)O)(OC[C@H]1O[C@@H](n2cnc3c(N)nc(F)nc32)[C@H](O)[C@@H]1O)P(=O)(O)O (single isomer, unassigned) [Example 79] | 100 to 1000 nM | > 1000 nM
CCOC(=O)[C@H](OC[C@H]1O[C@@H](n2cnc3c(N)nc(-c4ncco4)nc32)[C@H](O)[C@@H]1O)P(=O)(O)O (single isomer, unassigned) [Example 49] | < 100 nM | 100 to 1000 nM
CCNC(=O)[C@H](OC[C@H]1O[C@@H](n2cnc3c(NCC)nc(Cl)nc32)[C@H](O)[C@@H]1O)P(=O)(O)O (single isomer, unassigned) [Example 34] | < 100 nM | 100 to 1000 nM
CC(C)CNC(=O)[C@@H](OC[C@H]1O[C@@H](n2cnc3c(N)nc(Cl)nc32)[C@H](O)[C@@H]1O)P(=O)(O)O (single isomer, unassigned) [Example 17a] | 100 to 1000 nM | < 100 nM
N#Cc1ccc(CC(OC[C@H]2O[C@@H](n3cnc4c(N)nc(Cl)nc43)[C@H](O)[C@@H]2O)(C(=O)O)C(=O)O)cc1 [Example 48, 2-(((2R,3S,4R,5R)-5-(6-amino-2-chloro-9H-purin-9-yl)-3,4-dihydroxytetrahydrofuran-2-yl)methoxy)-2-(4-cyanobenzyl)malonic acid] | < 100 nM | < 100 nM
CNc1nc(Cl)nc2c1ncn2[C@@H]1O[C@H](COC(C)(C(=O)O)C(=O)O)[C@@H](O)[C@H]1O [Example 2, (2-(((2R,3S,4R,5R)-5-(2-chloro-6-(methylamino)-9H-purin-9-yl)-3,4-dihydroxytetrahydrofuran-2-yl)methoxy)-2-methylmalonic Acid)] | 100 to 1000 nM | 100 to 1000 nM
CCOC(=O)[C@H](OC[C@H]1O[C@@H](n2cnc3c(N)nc(Cl)nc32)[C@H](O)[C@@H]1O)P(=O)(O)O (single isomer, unassigned) [1, isomer 1] | < 100 nM | < 100 nM

Continued, values first:

IC50 (human CD73) | IC50 [1] | SMILES
100 to 1000 nM | 100 to 1000 nM | CCOC(=O)C(OC[C@H]1C[C@@H](n2cnc3c(N)nc(Cl)nc32)[C@H](O)[C@@H]1O)P(=O)(O)O (single isomer, unassigned) [Example 76a]
100 to 1000 nM | > 1000 nM | Cc1nc(N)c2ncn([C@@H]3O[C@H](COC(C(=O)O)P(=O)(O)O)[C@@H](O)[C@H]3O)c2n1 (single isomer, unassigned) [Example 69a]
< 100 nM | < 100 nM | CCNC(=O)[C@@H](OC[C@H]1O[C@@H](n2cnc3c(NCC)nc(Cl)nc32)[C@H](O)[C@@H]1O)P(=O)(O)O (single isomer, unassigned) [Example 34a]
< 100 nM | 100 to 1000 nM | O=C(O)C(OC[C@H]1O[C@@H](n2cnc3c(NO)nc(I)nc32)[C@H](O)[C@@H]1O)P(=O)(O)O (stereo partly drawn) [Example 59b, 2-(((2R,3S,4R,5R)-3,4-dihydroxy-5-(6-(hydroxyamino)-2-iodo-9H-purin-9-yl)tetrahydrofuran-2-yl)methoxy)-2-phosphonoacetic acid]
